According to the supplement of paper PMC11061612:

Legend:
[1] = test system: PC-14 (Lung Adenocarcinoma); experiment: combination Emax (second highest fraction inhibited in the dose matrix, 72 h); higher = more inhibition; extreme values may be limits of the assay
Summary of the method: (§1)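 Cell lines in DMEM/F12 or RPMI with 10% FBS were plated in 1536-well plates, held 24 hours at 37°C, 5% CO2, then given two-drug dose matrices for 72 hours (DMSO typically 0.2%). Viability was read by CellTiter-Glo 2.0 luminescence and scaled as inhibition from 0 (vehicle wells) to 1 (blank wells). Combination Emax is the second-highest inhibition in the matrix; Bliss excess is observed combination effect minus expected EA + EB − EA·EB, EA and EB being single-agent effects.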

[2] = test system: SJRH30 (Rhabdomyosarcoma); experiment: as above
Summary of the method: as §1

[3] = test system: HuO-3N1 (Osteosarcoma); experiment: as above
Summary of the method: as §1

[4] = test system: RT4 (Bladder Carcinoma); experiment: as above
Summary of the method: as §1

[5] = test system: AsPC-1 (Pancreatic Carcinoma); experiment: as above
Summary of the method: as §1

[6] = test system: RMG-I (Ovarian Carcinoma); experiment: as above
Summary of the method: as §1

[7] = test system: LAMA-84 (Chronic Myelogenous Leukemia); experiment: as above
Summary of the method: as §1

[8] = test system: SW684 (Other Solid Carcinomas); experiment: as above
Summary of the method: as §1

[9] = test system: RPMI-8866 (Chronic Myelogenous Leukemia); experiment: as above
Summary of the method: as §1

[10] = test system: PANC-02-03 (Pancreatic Carcinoma); experiment: as above
Summary of the method: as §1

[11] = test system: OVTOKO (Ovarian Carcinoma); experiment: as above
Summary of the method: as §1

[12] = test system: KYSE-70 (Esophageal Squamous Cell Carcinoma); experiment: as above
Summary of the method: as §1

[13] = test system: RL95-2 (Endometrial Carcinoma); experiment: as above
Summary of the method: as §1

[14] = test system: NCI-H1155 (Non-Small Cell Lung Carcinoma); experiment: as above
Summary of the method: as §1

[15] = test system: Becker (Low Grade Glioma); experiment: as above
Summary of the method: as §1

[16] = test system: CML-T1 (Chronic Myelogenous Leukemia); experiment: as above
Summary of the method: as §1

[17] = test system: OV-90 (Ovarian Carcinoma); experiment: as above
Summary of the method: as §1

[18] = test system: OCI-AML5 (Acute Myeloid Leukemia); experiment: Bliss excess, mean over the matrix (fraction); higher = more synergy
Summary of the method: as §1

[19] = test system: EB-3 (Burkitt's Lymphoma); experiment: as above
Summary of the method: as §1
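Throughout, for Bliss excess, mean over the matrix: after 72 h of two-drug dosing.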

| SMILES | combination Emax [1] | combination Emax [2] | combination Emax [3] | combination Emax [4] | combination Emax [5] | combination Emax [6] | combination Emax [7] | combination Emax [8] | combination Emax [9] | combination Emax [10] | combination Emax [11] | combination Emax [12] | combination Emax [13] | combination Emax [14] | combination Emax [15] | combination Emax [16] | combination Emax [17] | Bliss excess [18] | Bliss excess [19] |
| --- | --- | --- | --- | --- | --- | --- | --- | --- | --- | --- | --- | --- | --- | --- | --- | --- | --- | --- | --- |
| NC1(C(=O)N[C@@H](CCO)c2ccc(Cl)cc2)CCN(c2ncnc3[nH]ccc23)CC1 [Capivasertib] + CCN(CCO)CCCOc1ccc2c(Nc3cc(CC(=O)Nc4cccc(F)c4)[nH]n3)ncnc2c1 [AZD2811] (first compound max 10 µM, 7x7, partner max 1 µM) | 0.505 | 0.734 | 0.494 | 0.457 | 0.233 | 0.315 | 0.612 | 0.617 | 0.562 | 0.24 | 0.568 | 0.272 | 1 | 0.864 | 0.535 | 0.9 | 0.364 | -0.0465 | 0.0152 |
| CC(=O)c1c(C)c2cnc(Nc3ccc(N4CCNCC4)cn3)nc2n(C2CCCC2)c1=O [Palbociclib] + Cc1c2c(nn1C)CSCc1cc(n(C)n1)CSc1cc(c3ccccc3c1)OCCCc1c(C(=O)O)n(C)c3c-2c(Cl)ccc13 [AZD5991] (first compound max 10 µM, 7x7, partner max 1 µM) | 0.279 | 0.786 | 0.508 | 0.355 | 0.199 | 0.306 | 0.663 | 0.335 | 0.725 | 0.182 | 0.48 | 0.157 | 0.939 | 0.237 | 0.428 | 0.924 | 0.158 | 0.0572 | -0.0271 |
| CN(C)CCCOc1ccc(-c2ccc3ncc4c(c3c2)n(C2CCOCC2)c(=O)n4C)cn1 [AZD0156] + O=C(c1cc(Cc2n[nH]c(=O)c3ccccc23)ccc1F)N1CCN(C(=O)C2CC2)CC1 [Olaparib] (first compound max 3 µM, partner max 3 µM) | 0.236 | 0.48 | 0.289 | 0.174 | 0.297 | 0.29 | 0.472 | 0.141 | 0.285 | 0.248 | 0.33 | 0.123 | 0.384 | 0.452 | 0.247 | 0.688 | 0.257 | 0.0103 | 0.0234 |
| COc1cc2ncnc(Nc3ccc(F)c(Cl)c3)c2cc1OCCCN1CCOCC1 [Gefitinib] + CC(C)n1c(=O)n(C)c2cnc3cc(F)c(-c4ccc(OCCCN5CCCCC5)nc4)cc3c21 [AZD1390] (first compound max 10 µM, 7x7, partner max 0.3 µM) | 0.752 | 0 | 0.0711 | 0.128 | 0.13 | 0.413 | 0.315 | 0.136 | 0.119 | 0.266 | 0.428 | 0.098 | 0.0606 | 0.0815 | 0.126 | 0.148 | 0.12 | -0.051 | -0.0192 |
| Cc1nc(Nc2ncc(C(=O)Nc3c(C)cccc3Cl)s2)cc(N2CCN(CCO)CC2)n1 [Dasatinib] + CC(=O)Nc1cccc(-n2c(=O)n(C3CC3)c(=O)c3c(Nc4ccc(I)cc4F)n(C)c(=O)c(C)c32)c1 [Trametinib] (first compound max 2 µM, 7x7, partner max 1 µM) | 1 | 0.157 | 0.493 | 0.822 | 0.612 | 0.505 | 1 | 0.609 | 0.556 | 0.836 | 0.748 | 0.278 | 0.405 | 0.237 | 0.5 | 0.966 | 0.752 | -0.0515 | -0.0156 |
| C=CCn1c(=O)c2cnc(Nc3ccc(N4CCN(C)CC4)cc3)nc2n1-c1cccc(C(C)(C)O)n1 [AZD1775] + C1CN(CCC1(C(=O)N[C@@H](CCO)C2=CC=C(C=C2)Cl)N)C3=NC=NC4=C3C=CN4 [Capivasertib] (first compound max 3 µM, partner max 3 µM) | 0.859 | 0.955 | 0.633 | 0.712 | 0.505 | 0.47 | 0.939 | 0.467 | 0.964 | 0.605 | 0.594 | 0.534 | 0.963 | 0.831 | 0.602 | 0.932 | 0.587 | -0.0443 | -0.111 |
